# Assay results as given in patent publication US20110117154A1, “USE OF RIFALAZIL TO TREAT COLONIC DISORDERS” (ACTIVBIOTICS PHARMA, LLC, priority 2008, published 2011).
# Test system: C. difficile
# Assay: CDAD treatment in hamsters infected with C. difficile
# Format: in vivo
# Settings: for survival of hamsters infected with C. difficile: treated at the time of infection
# Method: Optimal dosages and formulations of Rifalazil alone, or in combination with a second drug compound, can be determined using standard animal models known in the art. One example of an animal model for C. difficile associated disease is the Golden Syrian hamster. To determine the optimal dosage regimen of Rifalazil, Golden Syrian hamsters are injected subcutaneously with clindamycin phosphate (10 mg/kg) followed, 24 hours later, by oral gavage with 10^5 colony forming units (CFU) of C. difficile. Antibiotic treatment is then administered orally, either simultaneously or 24 hours after C. difficile administration Animals are monitored for survival, weight variations, identification of C. difficile toxins in cecal content, and histologic damage to ceca as compared to animals treated with a prophylactic protocol using standard methods known in the art (see, for example, Anton P. M. et al., Abstract ID No. 102471, Publishing ID No. T1741, presented at the American Gastroenterological Association Meeting, May 17-22, 2003; Anton P. M. et al., Gastroenterology 124:A558, 2003).
# Hamsters were infected with C. difficile, and at the time of infection, were also treated with vancomycin (50 mg/kg) or Rifalazil (2 mg/kg).
# [1] = microgranulated formulation, systemic administration, relatively high doses (FIG. 1)
Structure (SMILES),survival of hamsters infected with C. difficile (Rifalazil 2 mg/kg),relapses of CDAD in in vivo animal experiments [1],treatment of CDAD in in vivo animal experiments [1],survival of hamsters infected with C. difficile (vancomycin 50 mg/kg)
"CO[C@H]1/C=C/O[C@@]2(C)Oc3c(C)c(O)c4c(=O)c(c5oc6cc(N7CCN(CC(C)C)CC7)cc(O)c6nc-5c4c3C2=O)NC(=O)/C(C)=C\C=C\[C@H](C)[C@H](O)[C@@H](C)[C@@H](O)[C@@H](C)[C@H](OC(C)=O)[C@@H]1C [Rifalazil, 3′-hydroxy-5′-(4-isobutyl-1-piperazinyl) benzoxazinorifamycin]",All animals treated with Rifalazil survived,no relapses were observed,effectively treated,–
"CN[C@H](CC(C)C)C(=O)N[C@H]1C(=O)N[C@@H](CC(N)=O)C(=O)N[C@H]2C(=O)N[C@H]3C(=O)N[C@H](C(=O)N[C@H](C(=O)O)c4cc(O)cc(O)c4-c4cc3ccc4O)[C@H](O)c3ccc(c(Cl)c3)Oc3cc2cc(c3O[C@@H]2O[C@H](CO)[C@@H](O)[C@H](O)[C@H]2O[C@H]2C[C@](C)(N)[C@H](O)[C@H](C)O2)Oc2ccc(cc2Cl)[C@H]1O [vancomycin, reference compound]",–,–,–,eventually succumbed to the infection
